As usually defined, the inhibition is the share of the control response that was lost under treatment.

From patent EP0565593B1, “REDUCING PESTICIDAL INTERACTIONS IN CROPS” (priority 1990, dated 1992) come the findings set out here.

What all share (format): in vivo
Experiment [1] relates to cotton (COTT). Kind of experiment: Multi-crop greenhouse test, COUNTER 15G and safener PPI, herbicide POE (Examples 62-64; Tables 61-63). Also on record: dose or concentration left out as unconfirmed. The settings on record: Gossypium hirsutum, Table 63, Biocide No. 1 8.96 Kg/Ha, antidote 4.48 Kg/Ha PPI where in label. As for the experimental part: (§1) Tests according to this invention in various crops indicate widespread application of the invention. In Examples 62-66 below are described tests with a variety of herbicides contacted with COUNTER® 15G in the presence and absence of MON-7400 (Antidote No. 12); MON-13900 (No. 1); MON-4660 (No. 16) and flurazole (No. 16). Those tests were conducted according to Procedures IV or V described above and illustrated further in other foregoing examples. Plants used in all tests were, for crops (as abbreviated in parentheses); cotton (COTT); soybean (SOBE); CORN, grain sorghum (GRSO); wheat (WHEA) and RICE, and the weeds giant foxtail (GIFT) and velvetleaf (VELE). The data in the tables below represent averages of two replications.
(§2) In this test the crops and weeds were planted 1.3 cm deep in 13.7 cm X 27.7 cm pans containing Dupo silt loam soil. The test safeners were applied in acetone solution and COUNTER 15G as dry granules to soil cover layers and incorporated by shaking in a bag. Treated cover layers were placed on seeded pans which were transferred to greenhouse benches and subirrigated. Herbicide was applied POE six (6) days after PPI initiation and observations of plant injury made ten (10) days later; results are shown in Table 61. The herbicide used in this example was BEACON (No. 8).
(§3) The test procedure described in Example 62 was repeated using ACCENT® (Herbicide No. 7) as the herbicide; the biocide and safeners were the same.

Experiment [2] relates to Corn. Put plainly: Multi-crop greenhouse test, herbicide POE (Examples 62-64; Tables 61-63). Also on record: inhibition: dose or concentration left out as unconfirmed. As to conditions: for inhibition: Zea mays, Table 63, Biocide No. 1 8.96 Kg/Ha, antidote 4.48 Kg/Ha PPI where in label. As for the experimental part: as §1, §2, §3
The test system of experiment [3] is Giant foxtail (GIFT). Described as above. The settings on record: Setaria faberi, Table 63, Biocide No. 1 8.96 Kg/Ha, antidote 4.48 Kg/Ha PPI where in label. Also on record: dose or concentration left out as unconfirmed. As for the experimental part: as §1, §2, §3
In experiment [4] the test system is grain sorghum (GRSO). The experiment is described as above. Also on record: dose or concentration left out as unconfirmed. The settings on record: Biocide No. 1 8.96 Kg/Ha, antidote 4.48 Kg/Ha PPI where in label. As for the experimental part: as §1, §2, §3
The subject of experiment [5] is wheat (WHEA). The description is as above. Also on record: dose or concentration left out as unconfirmed. The settings on record: Triticum aestivum, Table 63, Biocide No. 1 8.96 Kg/Ha, antidote 4.48 Kg/Ha PPI where in label. As for the experimental part:
as §1, §2, §3

The test system of experiment [6] is soybean (SOBE). The experiment is described as above. Also on record: dose or concentration left out as unconfirmed. The settings on record: Glycine max, Table 63, Biocide No. 1 8.96 Kg/Ha, antidote 4.48 Kg/Ha PPI where in label. As for the experimental part:
as §1, §2, §3

Experiment [7] relates to RICE. Described as above. Also on record: dose or concentration left out as unconfirmed. The settings on record: Oryza sativa, Table 63, Biocide No. 1 8.96 Kg/Ha, antidote 4.48 Kg/Ha PPI where in label. As for the experimental part: as §1, §2, §3
For experiment [8], the system named is Velvetleaf (VELE). The description is as above. Also on record: dose or concentration left out as unconfirmed. As to conditions: Abutilon theophrasti, Table 63, Biocide No. 1 8.96 Kg/Ha, antidote 4.48 Kg/Ha PPI where in label. As for the experimental part: as §1, §2, §3
Experiment [9] has as its system Corn. Put plainly: Greenhouse test Procedure VI: biocide and antidote in furrow, herbicide PPI in cover layer (Examples 43-47, 59-61; Tables 42-46, 58-60). The settings on record: COUNTER 15G/PURSUIT interaction; Example 47. The text has this:
This procedure describes interaction among herbicide, biocide and antidote when the herbicide is incorporated in a soil cover layer and the biocide and the antidote are applied in a soil furrow containing crop seed before emergence of the crop. The soil and seeding depth were described in Procedure IV. A first container was designated as an untreated control, a second container was designated as a herbicide control, a third container was designated as a herbicide + biocide control and a fourth container as a herbicide + biocide + antidote test container. The biocide and antidote were formulated as granules. The biocide was applied to the soil furrows of the third and fourth containers at an application rate of 1.1 mg of active compound per cm of row. The antidote was applied to the soil furrow of the fourth container at an application rate of 0.37 mg of active compound per cm of row. A measured amount of the herbicide dispersed or dissolved in acetone was applied to a measured quantity of soil. The quantity of soil treated with the herbicide was thoroughly mixed to incorporate the herbicide. Samples of this soil were used to cover the seed beds of the second, third and fourth containers. For each test series, the seed bed of the first container was likewise covered by a soil layer not treated with herbicide and without biocide or antidote in the soil furrow.
The containers were then placed on a bench in a greenhouse. Watering was by subirrigation plus overhead irrigation after the plants emerged. All treatments were run in duplicate. Plant response was observed according to Procedure IV. Variations in this procedure will be noted in the examples.
In continuing tests to evaluate the variations of this invention, a series of tests were conducted to determine the efficacy of the above safeners in Examples 39-42 to alleviate corn injury induced by the interaction of various additional commercial sulfonylurea herbicides with COUNTER 15G insecticide. In this example, the tests were conducted according to Procedure VI above. In modifications of that procedure, herbicides were applied to soil samples as acetone/water suspensions, incorporated by shaking in a closed container, with subsamples used to cover furrow-treated 10.2 cm pots. Pots were subirrigated followed by overhead misting on days 6-10.
This example was designed to test the safening effect of those above safeners used in this test series to relieve corn injury by negative synergism induced by interaction of COUNTER 15G and three imidazolinone herbicides, i.e., imazaquin and imazapyr (used in the POE tests in Example 41) and AC 263222 (a.i. in CADRE® herbicide). As differing from the tests in Example 41, this test was a PPI test according to Procedure VI described above. Observation of test results (Table 43) were taken thirteen 913) days after in-furrow PPI preparation.
This example describes PPI tests to evaluate said test safeners in this series with analogs of the sulfonamide herbicides tested under POE herbicide application procedures described in Example 42. In these tests, conducted according to Procedure VI described above, Herbicide Nos. 20, 22 and 24 were applied PPI with the insecticide and antidote. Observations of tests results were made thirteen days after PPI initiation.
An additional three (3) sulfonamide herbicide analogs were tested simultaneously and under the same conditions described in Example 45.
Another test of this invention involved the safening effects of the safeners in this series against negative synergy inducted by the interaction of COUNTER 15G and a sulfonylurea herbicide (OUST®), Herbicide No. 13, and PURSUIT, an imidazolinone herbicide, No. 6. Test conditions were the same as those in Examples 43-46. Other procedures for applying herbicidal formulations are as described in Example 42. […]

The test system of experiment [10] is Corn. Put plainly: Greenhouse test Procedure VII: biocide and antidote in furrow, herbicide POE (Examples 39-42, 48-50, 56-58; Tables 38-41, 47-49, 55-57). As to conditions: in-furrow antidote; COUNTER 15G + sulfonamide herbicides; Table 41. The procedure, abridged:
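Corn seed was planted in greenhouse pots, with COUNTER 15G insecticide plus antidote granules applied in-furrow (e.g. 1.1 + 0.37 mg a.i./cm, or 227 g/305 m with acetone-applied safeners). About five days later, herbicides in water with 0.25% v/v X-77 were track-sprayed post-emergence at 187 L/ha. Plant response was scored eight days afterward, with two to four replicates.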

Where [11] appears, read: Herb. No. 18 (PURSUIT) 0.009 Kg/Ha POE.
The mark [12] stands for this setting: Herb. No. 18 (PURSUIT) 0.035 Kg/Ha POE.
[13] abbreviates: Herb. No. 18 (PURSUIT) 0.14 Kg/Ha POE.

`CCc1cnc(C2=NC(C)(C(C)C)C(=O)N2)c(C(=O)O)c1` (stereo not drawn) [Herb. No. 18]: the inhibition in experiment [1] (setting [11]) was 40%; in experiment [1] (setting [12]), 45%; in experiment [1] (setting [13]), 50%; in experiment [2] (setting [11]) it was 5%; in experiment [2] (setting [12]), 25%; in [2] (setting [13]), 40%. The inhibition in [3] (setting [11]) was 60%; in experiment [3] (setting [12]) it was 80%; in [3] (setting [13]), 80%; in experiment [4] (Table 63, Herb. No. 18 (PURSUIT) 0.009 Kg/Ha POE) it was 60%; in experiment [4] (Table 63, Herb. No. 18 (PURSUIT) 0.035 Kg/Ha POE) it was 65%; in [4] (Table 63, Herb. No. 18 (PURSUIT) 0.14 Kg/Ha POE) it was 75%. The inhibition in experiment [5] (setting [11]) is 0%; in [5] (setting [12]), 20%; in [5] (setting [13]), 35%; in experiment [6] (setting [11]) it was 5%; in experiment [6] (setting [12]), 10%; in experiment [6] (setting [13]), 10%. The inhibition in [7] (setting [11]) is 20%; in [7] (setting [12]) it was 45%; in experiment [7] (setting [13]) it was 60%; in experiment [8] (setting [11]) it was 75%; in experiment [8] (setting [12]) it was 95%; in [8] (setting [13]) it was 100%.
For the compound `N#CCOc1ccc(Cl)c2cccnc12` [Antidote No. 33, Acetonitrile, [(5-chloro-8-quinolinyl)oxy]-], the “safening” value in [9] was “good activity”. For the same compound, the “corn injury” value in experiment [2] (COUNTER 15G and BEACON, Example 62) is listed as “effectively reduced”; in experiment [10], “significantly reduced”.
